The structures appear in SMILES notation.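 96-well plates; 48 h exposure; 5 concentrations. Endpoints by linear interpolation between flanking doses. Not reached: highest tested concentration assigned. At the GI50, growth is halved. TGI is the concentration that stops growth completely.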

Among the test systems are KM20L2 colon; SNB-78 CNS; MDA-N; XF 498 CNS; M19-MEL melanoma; RXF-631 renal; DMS 273 small cell lung.
Holding throughout (experiment): NCI-60 cell line screen, 48 h

Consider `O=C(O)/C(Cl)=C(/Cl)C(=O)Nc1cccc(Cl)c1`, for which the TGI with KM20L2 colon was found to be 47.3 µM; in the experiment on SNB-78 CNS it was 61 µM; with MDA-N, 37.4 µM; with XF 498 CNS it was 34.3 µM; in the experiment on M19-MEL melanoma, 30.4 µM; in the experiment on RXF-631 renal, 49.1 µM. The compound further came in with a TGI in the experiment with DMS 273 small cell lung of 18.9 µM.
With `COc1ccc(Cc2ccccc2C(=O)O)c2ccccc12`, the TGI in the experiment on MDA-N is 74.4 µM.
In the case of `CCC(=O)O[C@@H]1C2C(OC(C)=O)C34COC(C)([C@@H]3C3C(C[C@]3(C)OC(C)=O)[C@@H](OC(=O)c3ccccc3)C4=O)[C@H](OC(C)=O)[C@@]2(OC(C)=O)C[C@@H]1C` (stereo not given in full), the TGI in the experiment with KM20L2 colon is over 100 µM; with SNB-78 CNS, 73.4 µM; in the experiment on M19-MEL melanoma it was over 100 µM; with RXF-631 renal, over 100 µM; in the experiment on DMS 273 small cell lung it was over 100 µM.
For `CC(O)CN(CCN(CC(C)O)CC(C)O)CC(C)O.O=[N+]([O-])O.[Cu+2]` (stereo not given), in the experiment on MDA-N, the GI50 was over 100 µM and the TGI was over 100 µM.
As to `Cc1ccccc1NC(=O)c1[nH]c(=S)nc(N)c1-c1ccccc1C`, the TGI in the experiment on KM20L2 colon, in the experiment with SNB-78 CNS, in the experiment with M19-MEL melanoma and in the experiment with DMS 273 small cell lung was over 100 µM each time.
`C/C=C/C1(NS(=O)(=O)c2ccc(C)cc2)CCC(C(C)(C)C)CC1` (stereo not given): the TGI with KM20L2 colon is 38.7 µM; in the experiment with SNB-78 CNS, 64.1 µM; in the experiment on XF 498 CNS, 39.3 µM; with M19-MEL melanoma, 41 µM; in the experiment with RXF-631 renal, 71.8 µM; in the experiment on DMS 273 small cell lung, 31.5 µM.
As for `COC(=O)/C(C#N)=C1\N=NNN1CCCc1ccccc1`, the TGI in the experiment on SNB-78 CNS, with M19-MEL melanoma, in the experiment with RXF-631 renal and in the experiment on DMS 273 small cell lung was over 100 µM in each case.
Regarding `COc1nc2c(nc(N)n2C2OC(CO)C(O)C(O)C2O)c(=O)n1C` (stereo not given), the TGI in the experiment on KM20L2 colon, in the experiment with SNB-78 CNS, in the experiment on XF 498 CNS, in the experiment with M19-MEL melanoma and in the experiment on RXF-631 renal was over 100 µM throughout.
As for `Cc1cc2c(=O)cc(-c3ccc(Cl)cc3)oc2c(C(=O)O)c1C`, the TGI in the experiment on KM20L2 colon, in the experiment with SNB-78 CNS, in the experiment on XF 498 CNS, with M19-MEL melanoma, in the experiment on RXF-631 renal and with DMS 273 small cell lung was over 100 µM throughout.
Take `Cc1cc(Cl)ccc1N1C(=O)C(=O)C(c2nc3ccccc3s2)C(=O)C1=O`: the TGI in the experiment on KM20L2 colon, in the experiment with SNB-78 CNS, in the experiment on XF 498 CNS, in the experiment on RXF-631 renal and in the experiment on DMS 273 small cell lung was over 100 µM in each case.
For the compound `COc1ccccc1NC(=O)C1=C(C)NC(C)=C(C(=O)Nc2ccccc2OC)C1c1ccc(C(C)C)cc1`, the TGI in the experiment on KM20L2 colon, in the experiment with XF 498 CNS, with M19-MEL melanoma, in the experiment on RXF-631 renal and in the experiment with DMS 273 small cell lung was over 100 µM in each case.
As to `O=C(/C=C/c1ccccc1F)C(c1ccccc1)c1ccccc1`, the TGI in the experiment with KM20L2 colon turned out to be 15.6 µM; in the experiment with SNB-78 CNS, 34.8 µM; with XF 498 CNS, 3.56 µM; in the experiment with DMS 273 small cell lung, 38.1 µM.
For the compound `C[Si](C)(C)/C(Br)=C\CCN1C(=O)CCC1O` (stereo not given), the TGI in the experiment with KM20L2 colon, with SNB-78 CNS, in the experiment with XF 498 CNS, with M19-MEL melanoma and with DMS 273 small cell lung was over 100 µM each time.
Regarding `O=c1c2ccccc2nc(-c2ccc(Cl)cc2)n1O`, the TGI in the experiment on MDA-N is over 100 µM.
With `CCCCOC(=O)N[C@H]1CCc2cc(OC)c(OC)c(OC)c2-c2ccc(SC)c(=O)cc21`, the TGI was under 0.01 µM in the experiment on KM20L2 colon; over 4.64 µM in the experiment with SNB-78 CNS; under 0.01 µM with MDA-N; 2.55 µM in the experiment with XF 498 CNS; 65.7 µM in the experiment on M19-MEL melanoma.
Take `O=C1c2cccnc2-c2nc(-c3ccc([N+](=O)[O-])cc3)cc3c2c1nc1ccccc13`: in the experiment on MDA-N, the GI50 was 1.75 µM and the TGI came out at 3.22 µM.
`Cc1ccc(S(=O)(=O)N2CCCCC2CCO)cc1` (stereo not given): the TGI in the experiment on KM20L2 colon, in the experiment with SNB-78 CNS, in the experiment on M19-MEL melanoma and in the experiment on DMS 273 small cell lung was over 100 µM each time.
`O=Cc1ccc(C(F)(F)F)cc1.[C-]#[O+].[C-]#[O+].[C-]#[O+].[Cr]`: in the experiment with MDA-N, the GI50 was 18 µM and the TGI came out at 55.1 µM.
As to `O=C1C(c2ccccc2)=C(c2ccccc2)C(c2ccccc2)/C1=C1\C(=O)C(c2ccccc2)=C(c2ccccc2)C1c1ccccc1` (stereo not given), the TGI in the experiment with KM20L2 colon, in the experiment with SNB-78 CNS, in the experiment with M19-MEL melanoma and with DMS 273 small cell lung was over 100 µM each time.
Take `CCOc1ccc(NC(=O)C2=C(C)NC(C)=C(C(=O)Nc3ccc(OCC)cc3)C2c2ccc([N+](=O)[O-])cc2)cc1`: the TGI in the experiment on KM20L2 colon is 56.3 µM; in the experiment with SNB-78 CNS, over 100 µM; in the experiment on XF 498 CNS, 70.7 µM; in the experiment with M19-MEL melanoma, over 100 µM.
Turning to `CCOC1NC(=O)Oc2ccccc21` (stereo not given), the TGI with MDA-N is over 100 µM.
Same read-out and setting: the result for `CC(C)(C)c1ccc(-c2nnc(SCc3ccc(Cl)cc3)n2-c2cccc(C(F)(F)F)c2)cc1` reads over 100 µM.
In the case of `O=C1/C(=C/c2ccc(O)cc2)CCC1CNc1ccc(Cl)cc1` (stereo not given), the TGI with KM20L2 colon was determined as 14.2 µM; in the experiment on SNB-78 CNS, 33.8 µM; in the experiment on MDA-N, 20.9 µM; with M19-MEL melanoma it was 12.5 µM; in the experiment on RXF-631 renal, 32.1 µM; in the experiment with DMS 273 small cell lung, 12.1 µM.
With `CC(=O)O[C@H]1CC[C@@]2(C)C(=CC[C@@H]3C2CC[C@]2(C)Nc4oncc4CC32)C1` (stereo not given in full), the TGI in the experiment with KM20L2 colon is over 100 µM; with XF 498 CNS it was 84.4 µM; in the experiment with M19-MEL melanoma it was over 100 µM; in the experiment on RXF-631 renal, over 100 µM; with DMS 273 small cell lung, 73.5 µM.
As to `Cc1cc(Cl)ccc1NC(=O)C1C(=O)N(c2ccc(Cl)cc2C)C(=O)/C1=N\N` (stereo not given), the TGI with KM20L2 colon, in the experiment on SNB-78 CNS, in the experiment with XF 498 CNS and in the experiment on M19-MEL melanoma was over 100 µM each time.
For `Cc1cccc(C)c1NC(=O)C(=O)C1C(=O)N(c2ccccc2)N=C1N` (stereo not given), the TGI in the experiment with KM20L2 colon, in the experiment with SNB-78 CNS, with M19-MEL melanoma and with DMS 273 small cell lung was over 100 µM each time.
Compound `NCCOc1ccccn1` came in with a TGI with MDA-N of over 100 µM.
Consider `N#CC(C#N)=C1NC(=O)C(c2ccccc2)C(=O)N1` (stereo not given), for which the TGI with KM20L2 colon, with SNB-78 CNS, with XF 498 CNS, in the experiment on M19-MEL melanoma, in the experiment on RXF-631 renal and in the experiment on DMS 273 small cell lung was over 100 µM in each case.
Turning to `O=C(CC1C(=O)Nc2ccccc2S1=O)Nc1cccc(Cl)c1` (stereo not given), the TGI is over 100 µM in the experiment with KM20L2 colon; over 100 µM in the experiment with SNB-78 CNS; 56.1 µM in the experiment with MDA-N; over 100 µM in the experiment on XF 498 CNS; over 100 µM in the experiment with M19-MEL melanoma.
In the experiment on MDA-N, `CC(=O)Nc1ccc(C(=O)N[C@@H]2C(=O)N3[C@@H]2SC(C)(C)[C@@H]3C(=O)O)cn1` registered a TGI of over 100 µM.

(Values after PubChem BioAssay (NCI).)
